Reference: patent US20130053435A1, “Methods of Treating Alcohol Intoxication, Alcohol Use Disorders and Alcohol Abuse Which Comprises the Administration of Dihydromyricetin” (priority 2011, published 2013)
Where “and” joins values, the source holds several entries; their conditions need not be identical. Equal values may be shown once.

How the values were obtained:
[1] = tested on: EtOH withdrawal-induced tolerance in rats; assay: EtOH withdrawal-induced tolerance measured by acute EtOH-induced LORR; type: in vivo, rat; details: for LORR duration after 48 hr withdrawal: test EtOH 3 g/kg i.p.; for acute EtOH-induced LORR after 48 hr withdrawal: FIG. 12B
Description: See Kakihana R, et al. (1966) Science 154(756):1574-1575). […] LORR duration ended when the animal was able to flip over three times in 30 s. LORR assays were blindly performed. LORR durations were reported as mean (min)±SEM.
After a 48 hr withdrawal period, EtOH-induced LORR assays (EtOH, 3 g/kg, i.p.) were performed.
48 hr after injection, rats were sub-divided into 3 groups to measure signs of EtOH withdrawal.
Tolerance to EtOH was measured with acute EtOH-induced LORR (in minutes, FIG. 12B). EtOH induced 63.6±7.0 LORR in the vehicle group subjects as compared to 10.8±3.8 LORR in EtOH group subjects.

GABAARs = assay: Whole-cell patch-clamp, DGCs in hippocampal slices 48 hr after in vivo treatment; type: cell-based, rat; details: 48 hr withdrawal
Description: Transverse slices (400 μm) of dorsal hippocampus were obtained with a Vibratome (VT 100, Technical Products International, St. Louis, Mo.) and standard techniques known in the art. Slices were continuously perfused with artificial cerebrospinal fluid (ACSF). See Liang, J., et al. (2007) J Neurosci 27:12367-12377.
Whole-cell patch-clamp recordings were obtained at 34±0.5° C. from cells located in the DG layer at a holding potential of −70 mV, during perfusion with artificial cerebrospinal fluid (ACSF, 125 mM NaCl, 2.5 mM KCl, 2 mM CaCl2, 2 mM MgCl2, 26 mM NaHCO3, and 10 mM D-glucose). The ACSF was continuously bubbled with 95% O2-5% CO2 to ensure adequate oxygenation of slices and a pH of 7.4. Patch electrodes were pulled from thin-wall borosilicate glass pipettes with resistances of 7.5-9 MΩ and were filled with pipette solution (i.e. 137 mM CsCl, 2 mM MgCl2, 1 mM CaCl2, 11 mM EGTA, 10 mM HEPES and 3 mM ATP, pH adjusted to 7.30 with CsOH). Signals were recorded in voltage-clamp mode with a […] amplifier (Molecular Devices, Sunnyvale, Calif.). Whole cell access resistances were in the range of <25 MΩ before electrical compensation by about 70%. During voltage-clamp recordings, access resistance was monitored by measuring the size of the capacitative transient in response to a 5 mV step command and the data were abandoned if changes >20% were encountered. At least 10 min was allowed for equilibration of the pipette solution with the intracellular milieu before commencing mIPSC recordings. Intracellular signal was low-pass filtered at 3 kHz and data were acquired with Digidata 1440A and software CLAMPEX 10 (Molecular Devices) at a sampling frequency of 20 kHz.
Pharmacologically-isolated GABAAR-mediated mIPSCs were recorded as previously described (Liang (2007) and Shen (2011)). […] Data were analyzed using the Clampfit (Version 9.0, Molecular Devices) and the MiniAnalysis Program (versions 6.0.7, Synaptosoft, Decatur, Ga.).
The MiniAnalysis program (Synaptosoft, Decatur, Ga.) was used to analyze mIPSCs. Itonic is the averaged baseline currents of a given recording period. Itonic amplitude was calculated as the difference between the holding currents measured before and after picrotoxin (100 μM) or bicuculline (10 μM). See Wei, W., et al. (2004) J Neurosci 24, 8379-8382; Liang (2007); and Shen (2011). Briefly, the recordings were low-pass filtered off-line (Clampfit software) at 2 kHz. The mIPSCs were detected (Mini Analysis Program, version 6.0.7) with threshold criteria of 8 pA amplitude and 20 pA*ms charge transfer. The frequency of mIPSCs was determined from all automatically detected events in a given 100 s recording period. For kinetic analysis, only single event mIPSCs with a stable baseline, sharp rising phase (10 to 90% rise time), and exponential decay were chosen during visual inspection of the recording trace. Double and multiple peak mIPSCs were excluded. At least 100 individual mIPSC events were recorded under each experimental condition. The mIPSC kinetics was obtained from analysis of the averaged chosen single events aligned with half rise time in each cell. Decay time constants were obtained by fitting a double exponential to the falling phase of the averaged mIPSCs. Itonic magnitudes were obtained from the averaged baseline current of a given recording period. Itonic amplitude was calculated as the difference between the holding currents measured before and after the application of picrotoxin (50 μM) or bicuculline (10 μM). See Liang J et al (2007); Shen (2011); Hamann (2002); and Mangan P S, et al. (2005) Mol Pharmacol 67(3):775-788. The investigator performing the recordings and mIPSC analysis was blind to the treatment (vehicle, EtOH, E+D, or D) that the rats received.
After 48 hr withdrawal, whole-cell GABAAR-mediated currents were recorded on DGCs in hippocampal slices. In the vehicle group, bath application of EtOH (60 mM) enhanced Itonic from 28.8±3.1 to 62.1±3.3 pA (FIG. 13, panels A, G). […]

GABAAR α4 subunit = assay: Western blot of hippocampal tissue after 48 hr withdrawal; type: in vivo, rat
Description: Parallel Western blots from rat hippocampus were examined to determine whether EtOH induced changes in total protein of GABAAR α4 subunits. Hippocampal tissues from rats were lysed in RIPA-buffer containing 1% Triton X-100, 0.1% sodium dodecyl sulfate (SDS), 50 mM Na3PO4, 150 mM NaCl, 2 mM EDTA, 50 mM NaF, 10 mM sodium pyrophosphate, 1 mM sodium orthovanadate, 1 mM phenylmethylsulfonyl fluoride (PMSF) and Complete protease inhibitor cocktail (Roche). The lysate was centrifuged for 15 min (14,000×g, 4° C.) and the supernatant collected for Western blot analysis. Western blots were performed using rabbit anti-GABAAR α4 (aa 379-421) and mouse anti-β-actin (Sigma) followed by HRP-conjugated secondary antibodies. Bands were detected using ECL detection kit (Amersham) and analyzed by densitometric measurements using ImageQuant 5.2 (Molecular Dynamics). Bands were stripped with buffer containing 62.5 mM Tris-HCl, 100 mM β-mercaptoethanol and 2% SDS (pH 6.7) and reprobed several times. Protein concentrations were determined with BCA Protein Assay Kit (Pierce) according to the manufacturer instructions.
The total protein content of GABAAR α4 subunit in hippocampus 48 hr after the above 4 treatments was assayed.

In the case of `O=C1c2c(O)cc(O)cc2O[C@H](c2cc(O)c(O)c(O)c2)[C@H]1O` [DHM, (2R,3R)-3,5,7-trihydroxy-2-(3,4,5-trihydroxyphenyl)-2,3-dihydrochromen-4-one], the “LORR duration after 48 hr withdrawal” value ([1]; DHM 1 mg/kg i.p. alone) is reported as 61 ± 4 min, the “acute EtOH-induced LORR after 48 hr withdrawal” value ([1]; DHM group) is reported as 65.6 ± 8.4 min and the “acute EtOH-induced LORR after 48 hr withdrawal” value ([1]; EtOH+DHM (1 mg/kg) group) is reported as 61.0 ± 3.8 min. For the same compound, the “LORR duration after 48 hr withdrawal” value ([1]; i.p. EtOH 3 g/kg + DHM 1 mg/kg 30 min after EtOH) was 61 ± 4 min, the “mIPSC area after acute EtOH (60 mM)” value (GABAARs; EtOH+DHM group) was 0.78±0.02 nC and the “mIPSC area before acute EtOH” value (GABAARs; EtOH+DHM group) was 0.70±0.03 nC. The “Itonic before acute EtOH” value (GABAARs; rats treated with EtOH (5 g/kg) + DHM (1 mg/kg)) was 30.0±2.8 pA and 27.9±3.0 pA, the “Itonic after acute EtOH (60 mM)” value (GABAARs; rats treated with EtOH + DHM (1 mg/kg)) was 60.0±2.2 pA and 61.3±2.3 pA and the “mIPSC increase by acute EtOH (60 mM)” value (GABAARs; rats treated with EtOH + DHM) was 18.0±5.9%. The “total α4 subunit level” value (GABAAR α4 subunit; DHM group) was 88.3±10.3 % of control and the “total α4-protein level” value (GABAAR α4 subunit; EtOH+DHM group) was 93.0±21.0 % of control.
